Test systems include HL-60(TB) leukemia; HOP-92 NSCLC; LOX IMVI melanoma; M14 melanoma; MCF7 breast; NCI-H522 lung; OVCAR-3 ovarian; RPMI-8226 leukemia; RXF 393 renal; SF-539 CNS; U251 CNS; 786-0 renal; HCC-2998 colon; HOP-62 NSCLC; HS 578T breast; SF-268 CNS; SF-295 CNS; SK-OV-3 ovarian; SNB-19 CNS; SNB-75 CNS; TK-10 renal; A498 renal; DU-145 prostate; SK-MEL-5 melanoma; SR leukemia; UACC-257 melanoma.

Experiment in all cases: NCI-60 cell line screen, 48 h

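Where inhibition never reached the appropriate level, the endpoint shown equals the highest concentration tested. Otherwise, values were interpolated linearly from a five-concentration, 48-hour dose response in 96-well plates. Here, GI50 denotes the concentration required for 50% inhibition of growth. At the TGI there is no net growth.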

Among the data in PubChem BioAssay (NCI) are GI50 and TGI values, retold here.

Regarding `CC(C)OC(=S)[S-].[Au+].c1ccc([PH+](c2ccccc2)c2ccccc2)cc1`, the GI50 in the test with HL-60(TB) leukemia was 0.264 µM; in the test with HOP-92 NSCLC, 1.07 µM; in the test with LOX IMVI melanoma, 0.478 µM; in the test with M14 melanoma it was 0.986 µM; in the test with MCF7 breast, 0.467 µM; with NCI-H522 lung, 0.176 µM. Also, the GI50 in the test on OVCAR-3 ovarian was 0.316 µM; in the test on RPMI-8226 leukemia, 0.747 µM; in the test with RXF 393 renal it was 0.387 µM; in the test with SF-539 CNS, 1.24 µM; with U251 CNS, 0.419 µM. The TGI came to 1.36 µM in the test on HL-60(TB) leukemia; 2.25 µM with HOP-92 NSCLC; 2.07 µM in the test with LOX IMVI melanoma; 2.32 µM in the test on M14 melanoma; 2.66 µM in the test with MCF7 breast; 0.409 µM with NCI-H522 lung. Also, the TGI in the test on OVCAR-3 ovarian is 1.05 µM; with RPMI-8226 leukemia, 4.01 µM; in the test with RXF 393 renal, 1.48 µM; in the test with SF-539 CNS it was 2.49 µM; in the test on U251 CNS it was 1.56 µM.
As for `Cc1cc2c(C#N)n3c(c2cc1C)C(=O)C(c1ccccc1)Oc1ccccc1-3` (stereo not drawn), the GI50 with 786-0 renal was 3.91 µM; in the test on HCC-2998 colon, above 100 µM; in the test with HOP-62 NSCLC, 3.71 µM; in the test on HOP-92 NSCLC it was 1.62 µM; with HS 578T breast, 4.29 µM; in the test with RXF 393 renal, 2.71 µM. Further, the GI50 with SF-268 CNS is 3.73 µM; in the test on SF-295 CNS, 3.83 µM; in the test with SK-OV-3 ovarian it was 5.55 µM; with SNB-19 CNS, 2.97 µM; in the test with SNB-75 CNS, 2.25 µM; in the test with TK-10 renal, 3.33 µM. The TGI in the test with 786-0 renal is above 100 µM; in the test with HCC-2998 colon, above 100 µM; in the test on HOP-62 NSCLC, above 100 µM; in the test on HOP-92 NSCLC it was 5.77 µM; in the test on HS 578T breast, above 100 µM; in the test with RXF 393 renal, 39.6 µM. Further, the TGI with SF-268 CNS was above 100 µM; in the test on SF-295 CNS, above 100 µM; with SK-OV-3 ovarian, above 100 µM; in the test on SNB-19 CNS, above 100 µM; in the test with SNB-75 CNS, 9.58 µM; in the test on TK-10 renal, above 100 µM.
With `N=C(N)c1ccc(-c2ccc(-c3ccc(Cl)cc3)s2)s1`, the GI50 is 13 µM with A498 renal; 1.62 µM in the test with DU-145 prostate; 3.16 µM in the test on SK-MEL-5 melanoma; 1.7 µM in the test with SK-OV-3 ovarian; 0.322 µM in the test with SR leukemia; 2.78 µM in the test on UACC-257 melanoma. Also, the TGI with A498 renal was 45.3 µM; in the test with DU-145 prostate, 2.98 µM; with SK-MEL-5 melanoma, 8.66 µM; in the test on SK-OV-3 ovarian, 3.15 µM; with SR leukemia it was above 100 µM; with UACC-257 melanoma it was 4.9 µM.
